Laboratory results as given in patent publication US6448204B1, “Herbicidal 2-aryloxy-4-methyl-6-pyrazol-1-yl-pyridines” (BASF Aktiengesellschaft, priority 1999, dated 2002).

Key:
Type in all cases: in vivo
Stellaria media (STEME) = test: Pre-emergence test; details: 3 weeks after treatment
Method: (§1) To evaluate their herbicidal activity, compounds according to the invention are tested using a representative range of plants: […] The pre-emergence tests involve spraying a liquid formulation of the compound onto the soil in which the seeds of the plant species mentioned above has recently been sown. The soil used in the tests is a prepared horticultural loam. […] In these tests untreated sown soil are used as controls.

Zea mays (ZEAMX) = test: Pre-emergence test; details: crop (corn), 3 weeks after treatment
Method: as §1

[1] = system: Cassia obtusifolia (CASOB); test: Pre-emergence test; details: 3 weeks after treatment
Method: as §1

[2] = system: Abutilon theophrasti (ABUTH); test: Pre-emergence test; details: 3 weeks after treatment
Method: as §1

[3] = system: Matricaria inodora (MATIN); test: Pre-emergence test; details: 3 weeks after treatment
Method: as §1

Setaria viridis (SETVI) = test: Pre-emergence test; details: 3 weeks after treatment
Method: as §1

[4] = system: Ambrosia artemisifolia (AMBEL); test: Pre-emergence test; details: 3 weeks after treatment
Method: as §1

Lamium purpureum (LAMPU) = test: Pre-emergence test; details: 3 weeks after treatment
Method: as §1

[5] = system: Digitaria sanguinalis (DIGSA); test: Pre-emergence test; details: 3 weeks after treatment
Method: as §1

[6] = system: Alopecurus myosuroides (ALOMY); test: Pre-emergence test; details: 3 weeks after treatment
Method: as §1

[7] = system: Ipomoea hederacea (IPOHE); test: Pre-emergence test; details: 3 weeks after treatment
Method: as §1

weed species = test: Post-emergence test, summary over all weeds
Method: To evaluate their herbicidal activity, compounds according to the invention are tested using a representative range of plants:
These acetone solutions are diluted with water and the resulting formulations applied at dosage levels equivalent of about 0.025 to 0.4 kg per hectare of test compound per pot. After spraying the plants are placed on greenhouse benches and are cared for in the usual manner, commensurate with conventional greenhouse practices. From 2 to 4 weeks after treatment, the seedling plants are examined and rated according to the rating system provided above.

[8] = system: thirteen weed species (broadleaf weeds and grasses); test: Pre-emergence test, summary over all weeds; details: for Number of weed species well / sufficiently controlled: out of thirteen species
Method: as §1

For `Cn1nc(C(F)(F)F)cc1Oc1cccc(-n2ccc(C(F)(F)F)n2)n1` [Comparison], the “Assessment rating STEME (pre-emergence application)” value (“Assessment rating STEME” below) (Stellaria media (STEME); 0.013 kg/ha) was 0 (0 - No effect), the “Assessment rating STEME” value (Stellaria media (STEME); 0.025 kg/ha) was 8 (8 - Approaching complete kill) and the “Assessment rating STEME” value (Stellaria media (STEME); 0.100 kg/ha) was 8 (8 - Approaching complete kill). The “Assessment rating STEME” value (Stellaria media (STEME); 0.400 kg/ha) was 9 (9 - Complete kill), the “Assessment rating ZEAMX (pre-emergence application)” value (from here on “Assessment rating ZEAMX”) (Zea mays (ZEAMX); 0.013 kg/ha) was 0 (0 - No effect) and the “Assessment rating ZEAMX” value (Zea mays (ZEAMX); 0.025 kg/ha) was 0 (0 - No effect). For the same molecule, the “Assessment rating ZEAMX” value (Zea mays (ZEAMX); 0.100 kg/ha) was 1 (1 - Trace effect), the “Assessment rating ZEAMX” value (Zea mays (ZEAMX); 0.400 kg/ha) was 2 (2 - Slight effect) and the “Assessment rating CASOB (pre-emergence application)” value (shortened to “Assessment rating CASOB”) ([1]; 0.013 kg/ha) was 0 (0 - No effect). For the same molecule, the “Assessment rating CASOB” value ([1]; 0.025 kg/ha) was 0 (0 - No effect), the “Assessment rating CASOB” value ([1]; 0.100 kg/ha) was 2 (2 - Slight effect) and the “Assessment rating CASOB” value ([1]; 0.400 kg/ha) was 5 (5 - Definite injury). For the same molecule, the “Assessment rating ABUTH (pre-emergence application)” value (“Assessment rating ABUTH” below) ([2]; 0.013 kg/ha) was 0 (0 - No effect), the “Assessment rating ABUTH” value ([2]; 0.025 kg/ha) was 0 (0 - No effect) and the “Assessment rating ABUTH” value ([2]; 0.100 kg/ha) was 5 (5 - Definite injury). For the same molecule, the “Assessment rating ABUTH” value ([2]; 0.400 kg/ha) was 9 (9 - Complete kill), the “Assessment rating MATIN (pre-emergence application)” value (from here on “Assessment rating MATIN”) ([3]; 0.013 kg/ha) was 2 (2 - Slight effect) and the “Assessment rating MATIN” value ([3]; 0.025 kg/ha) was 7 (7 - Good herbicidal effect). The “Assessment rating MATIN” value ([3]; 0.100 kg/ha) was 9 (9 - Complete kill), the “Assessment rating MATIN” value ([3]; 0.400 kg/ha) was 9 (9 - Complete kill) and the “Assessment rating SETVI (pre-emergence application)” value (shortened to “Assessment rating SETVI”) (Setaria viridis (SETVI); 0.013 kg/ha) was 2 (2 - Slight effect). The “Assessment rating SETVI” value (Setaria viridis (SETVI); 0.025 kg/ha) was 2 (2 - Slight effect), the “Assessment rating SETVI” value (Setaria viridis (SETVI); 0.100 kg/ha) was 8 (8 - Approaching complete kill) and the “Assessment rating SETVI” value (Setaria viridis (SETVI); 0.400 kg/ha) was 9 (9 - Complete kill). For the same molecule, the “Assessment rating AMBEL (pre-emergence application)” value (“Assessment rating AMBEL” below) ([4]; 0.013 kg/ha) was 0 (0 - No effect), the “Assessment rating AMBEL” value ([4]; 0.025 kg/ha) was 4 (4 - Injury) and the “Assessment rating AMBEL” value ([4]; 0.100 kg/ha) was 6 (6 - Herbicidal effect). For the same molecule, the “Assessment rating AMBEL” value ([4]; 0.400 kg/ha) was 8 (8 - Approaching complete kill), the “Assessment rating LAMPU (pre-emergence application)” value (from here on “Assessment rating LAMPU”) (Lamium purpureum (LAMPU); 0.013 kg/ha) was 1 (1 - Trace effect) and the “Assessment rating LAMPU” value (Lamium purpureum (LAMPU); 0.025 kg/ha) was 6 (6 - Herbicidal effect). The “Assessment rating LAMPU” value (Lamium purpureum (LAMPU); 0.100 kg/ha) was 8 (8 - Approaching complete kill), the “Assessment rating LAMPU” value (Lamium purpureum (LAMPU); 0.400 kg/ha) was 8 (8 - Approaching complete kill) and the “Assessment rating DIGSA (pre-emergence application)” value (shortened to “Assessment rating DIGSA”) ([5]; 0.013 kg/ha) was 9 (9 - Complete kill). The “Assessment rating DIGSA” value ([5]; 0.025 kg/ha) was 9 (9 - Complete kill), the “Assessment rating DIGSA” value ([5]; 0.100 kg/ha) was 9 (9 - Complete kill) and the “Assessment rating DIGSA” value ([5]; 0.400 kg/ha) was 9 (9 - Complete kill). For the same molecule, the “Assessment rating ALOMY (pre-emergence application)” value (“Assessment rating ALOMY” below) ([6]; 0.013 kg/ha) was 0 (0 - No effect), the “Assessment rating ALOMY” value ([6]; 0.025 kg/ha) was 1 (1 - Trace effect) and the “Assessment rating ALOMY” value ([6]; 0.100 kg/ha) was 4 (4 - Injury). The “Assessment rating ALOMY” value ([6]; 0.400 kg/ha) was 8 (8 - Approaching complete kill), the “Assessment rating IPOHE (pre-emergence application)” value (from here on “Assessment rating IPOHE”) ([7]; 0.013 kg/ha) was 0 (0 - No effect) and the “Assessment rating IPOHE” value ([7]; 0.025 kg/ha) was 1 (1 - Trace effect). For the same molecule, the “Assessment rating IPOHE” value ([7]; 0.100 kg/ha) was 3 (3 - Moderate effect), the “Assessment rating IPOHE” value ([7]; 0.400 kg/ha) was 7 (7 - Good herbicidal effect) and the “Number of weed species controlled” value (weed species; 0.025 kg/ha) was “one species”. The “Number of weed species controlled” value (weed species; 0.100 kg/ha) was “four species”, the “Active ingredient required for maize selective weed control relative to the compound of the invention” value [8] was “four times more active ingredient” and the “Herbicidal activity, overall judgement” value [8] was “clearly inferior in activity”. For the same molecule, the “Rate required to obtain the same level of weed control” value [8] was 0.400 kg/ha, the “Number of weed species well / sufficiently controlled” value ([8]; 0.100 kg/ha) was “six out of thirteen species” and the “Number of weed species well / sufficiently controlled” value ([8]; 0.400 kg/ha) was “ten”.
